Activity, Ki and Km data for 12 molecules are collected here from ChEMBL document CHEMBL2074499, “Cloning and functional expression of a human liver organic cation transporter” (Mol Pharmacol, 1997).

For series [1], the target named is T1, Solute carrier family 22 member 1 (Homo sapiens, UniProt O15245).
T1 sequence (O15245 whole entry): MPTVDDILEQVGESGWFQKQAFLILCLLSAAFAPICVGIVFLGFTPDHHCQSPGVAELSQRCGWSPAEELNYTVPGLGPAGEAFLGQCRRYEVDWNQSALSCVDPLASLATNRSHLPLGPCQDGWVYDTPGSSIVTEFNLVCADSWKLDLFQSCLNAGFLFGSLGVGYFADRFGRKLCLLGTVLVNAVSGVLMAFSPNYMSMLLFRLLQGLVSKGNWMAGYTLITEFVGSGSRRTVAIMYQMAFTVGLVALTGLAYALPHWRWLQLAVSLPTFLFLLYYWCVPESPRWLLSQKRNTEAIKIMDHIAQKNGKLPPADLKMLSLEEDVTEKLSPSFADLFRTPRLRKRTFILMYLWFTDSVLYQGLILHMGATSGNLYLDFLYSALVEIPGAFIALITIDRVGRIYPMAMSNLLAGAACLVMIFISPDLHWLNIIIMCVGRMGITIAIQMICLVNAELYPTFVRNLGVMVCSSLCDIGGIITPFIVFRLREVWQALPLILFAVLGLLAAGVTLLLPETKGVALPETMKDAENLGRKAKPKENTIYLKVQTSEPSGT
The experiment in a line: TP_TRANSPORTER: inhibition of MPP+ uptake (MPP+: 0.85 uM, Quinidine: 1000 uM) in Xenopus laevis oocytes. The conditions noted are these: oocyte. It counts as functional, cell-based.

The target of series [2] is T1, Solute carrier family 22 member 1. Nature of the series: TP_TRANSPORTER: inhibition of MPP+ uptake (MPP+: 0.85 uM, Verapamil: 5000 uM) in Xenopus laevis oocytes. In kind it is functional, cell-based. The conditions noted are these: oocyte.
For series [3] the target is unchanged. Nature of the series: TP_TRANSPORTER: inhibition of MPP+ uptake (MPP+: 0.85 uM, Quinine: 1000 uM) in Xenopus laevis oocytes. In kind it is functional, cell-based. The conditions noted are these: oocyte.
The target is the same in series [4]. The experiment in a line: TP_TRANSPORTER: inhibition of MPP+ uptake in Xenopus laevis oocytes. In kind it is functional, cell-based, Oocyte.
Series [5] has the same target. The experiment in a line: TP_TRANSPORTER: inhibition of MPP+ uptake (MPP+: 0.85 uM, Thymidine: 5000 uM) in Xenopus laevis oocytes. It counts as functional, cell-based. The conditions noted are these: oocyte.
The target is the same in series [6]. The experiment in a line: TP_TRANSPORTER: inhibition of MPP+ uptake (MPP+: 0.85 uM, NMN: 5000 uM) in Xenopus laevis oocytes. In kind it is functional, cell-based. The following applies: oocyte.
For series [7] the target is unchanged. Nature of the series: TP_TRANSPORTER: inhibition of MPP+ uptake (MPP+: 0.15 uM, Inosine: 1000 uM) in Xenopus laevis oocytes. It counts as functional, cell-based. The conditions noted are these: oocyte.
For series [8] the target is unchanged. The experiment in a line: TP_TRANSPORTER: inhibition of MPP+ uptake (MPP+: 0.85 uM, Pancuronium: 1000 uM) in Xenopus laevis oocytes. The conditions noted are these: oocyte. In kind it is functional, cell-based.
Series [9] has the same target. The experiment in a line: TP_TRANSPORTER: inhibition of MPP+ uptake (MPP+: 0.85 uM, Procainamide: 5000 uM) in Xenopus laevis oocytes. It counts as functional, cell-based. The following applies: oocyte.
Substrate in series [10]: C[n+]1ccc(-c2ccccc2)cc1
Nature of the series: TP_TRANSPORTER: uptake in Xenopus laevis oocytes. It counts as functional, cell-based, Oocyte.

Consider `C=C[C@H]1C[N@@]2CC[C@H]1C[C@@H]2[C@@H](O)c1ccnc2ccc(OC)cc12` [QUINIDINE], for which the Activity entry in [1] is “inhibitor [+]”.
For `COc1ccc(CCN(C)CCCC(C#N)(c2ccc(OC)c(OC)c2)C(C)C)cc1OC` (configuration not stated), the Activity result in [2] is “inhibitor [+]”.
`C=C[C@H]1C[N@@]2CC[C@H]1C[C@H]2[C@H](O)c1ccnc2ccc(OC)cc12` [QUININE]: in series [3], the Activity result is “inhibitor [+]”.
`CC(=O)O[C@H]1C[C@@H]2CC[C@@H]3[C@H](CC[C@@]4(C)[C@H]3C[C@H]([N+]3(C)CCCCC3)[C@@H]4OC(C)=O)[C@@]2(C)C[C@@H]1N1CCCCC1` [VECURONIUM]: the affinity in series [4], expressed as Ki, was 120 µM.
`Cc1cn([C@H]2C[C@H](O)[C@@H](CO)O2)c(=O)[nH]c1=O` [DOXRIBTIMINE]: the Activity result in [5] was “inhibitor [+]”.
Regarding `CC[N+](CC)(CC)CC` [TETRYLAMMONIUM], affinity in series [4] was put at a Ki of 163 µM.
With `CNC(=O)c1cccnc1` [NICOTINYL METHYLAMIDE], the Activity result in [6] was “inhibitor [+]”.
In the case of `OC[C@H]1O[C@@H](n2cnc3c(O)ncnc32)[C@H](O)[C@@H]1O` [INOSINE], the Activity entry in [7] is “inhibitor [+]”.
In the case of `CC(=O)O[C@H]1C[C@@H]2CC[C@@H]3[C@H](CC[C@@]4(C)[C@H]3C[C@H]([N+]3(C)CCCCC3)[C@@H]4OC(C)=O)[C@@]2(C)C[C@@H]1[N+]1(C)CCCCC1` [PANCURONIUM], the Activity result in series [8] was “inhibitor [+]”.
In the case of `CCN1/C(=C/c2ccc3ccccc3[n+]2CC)C=Cc2ccccc21`, affinity in series [4] was put at a Ki of 4.4 µM.
For the molecule `CCN(CC)CCNC(=O)c1ccc(N)cc1` [PROCAINAMIDE], the Activity entry in series [9] is “inhibitor [+]”.

B1: Solute carrier family 22 member 1 (Homo sapiens) (protein)
chain: T1 sequence (O15245 whole entry)
As for B1, in series [10], the Km (usually the substrate concentration at which the rate is half of its maximum) was 14.6 µM.
